Assay results from US5574008A, “Biologically active fragments of glucagon-like insulinotropic peptide” (Eli Lilly and Company, priority 1994, dated 1996).

Tested on: fasted normal Sprague-Dawley rats
Test: In vivo hyperglycemic clamp assay (glucose up-take assay)
Set-up: species or system rat
Details: 200 mg/dl plasma glucose clamp, 0.3 nmol/kg iv bolus at 60 min
From the text: In vivo Hyperglycemic Clamp Assay (Glucose Up-take Assay) Male Sprague-Dawley rats (Charles Rivers) weighing about 350 grams were allowed to acclimate to their surroundings for a week after which they were cannulated under isoflurane inhalation anesthetic. Two catheters were implanted into the jugular vein for infusions of glucose and GLP-1 fragment. Another catheter was implanted into the carotid artery for sampling blood. The catheters were exteriorized through the skin at the vertex of the head, filled with a glycerol/heparin solution (30 ml glycerol/10 ml heparin from a 1000 u/ml stock solution), and closed off with a one centimeter stainless steel plug. The rats were housed individually in wire mesh cages and were fed ad libitum on a standard rat chow diet. Each animal was given at least one week to recover from surgery before testing any GLP-1 fragments for biological activity. The rats were fasted overnight; on the morning of the experiment, sampling tubes were connected to the indwelling catheters, and the tubes were enclosed in a light weight stainless steel spring for protection. The rats were acclimated to their cages for 15 minutes. All experiments were carried out in conscious, free moving rats. A basal blood sample was taken for measurement of insulin and glucose levels at time zero on the timer. The rats were then given a bolus of 20% dextrose to raise plasma glucose to either 150 mg/dl (8.3 mM) or 200 mg/dl (11.2 mM). Plasma glucose levels were maintained at the chosen level by measuring plasma glucose levels approximately every 5 minutes and adjusting the calibrated variable infusion pump as needed to maintain the established blood glucose levels. Blood samples were collected at 45 and 60 minutes for the control period measurements. At 60 minutes into the clamp, 0.3 nmol/kg of the experimental GLP-1 fragment was injected via the jugular vein catheter and flushed with saline. […] The blood samples were centrifuged in a micro centrifuge to separate the plasma component. Plasma glucose was measured on a Beckman Glucose analyzer II using the glucose oxidase method. Plasma insulin was determined by standard radio immunoassay as per the manufacturer's directions (Diagnostic Products Corp.). The activity of the GLP-1 fragment was determined by the percentage change in glucose infusion rate and change in insulin secreted. These two parameters were compared to control rats that received only diluent. Note: This assay is based on reports that GLP-1 insulinotropic action is glucose dependent. The assay protocol eliminates variability due to falling glucose levels in other protocols using the "bolus" method. The hyperglycemic clamp involved administration of variable amounts of glucose (20% dextrose) to maintain glucose at a constant level of 8.3 or 11.2 mM in fasted normal Sprague-Dawley rats. The hyperglycemic clamp is maintained for 1 hour after which the GLP-1 fragment is injected as a bolus through the jugular vein. […] The glucose infusion rate (GIR) in the last 15 minutes of the control period and after the injection of the peptide is calculated. The activity of the peptide is determined by the increase in glucose infusion rate and change in insulin secreted after the injection of the peptide.

CC[C@H](C)[C@H](NC(=O)[C@H](Cc1ccccc1)NC(=O)[C@H](CCC(=O)O)NC(=O)[C@H](CCCCN)NC(=O)[C@H](C)NC(=O)[C@H](C)NC(=O)[C@H](CCC(N)=O)NC(=O)CNC(=O)[C@H](CCC(=O)O)NC(=O)[C@H](CC(C)C)NC(=O)[C@H](Cc1ccc(O)cc1)NC(=O)[C@H](CO)NC(=O)[C@H](CO)NC(=O)[C@@H](NC(=O)[C@H](CC(=O)O)NC(=O)[C@H](CO)NC(=O)[C@@H](NC(=O)[C@H](Cc1ccccc1)NC(=O)[C@@H](NC(=O)CNC(=O)[C@@H](N)CCC(=O)O)[C@@H](C)O)[C@@H](C)O)C(C)C)C(=O)N[C@@H](C)C(=O)N[C@@H](Cc1c[nH]c2ccccc12)C(=O)N[C@@H](CC(C)C)C(=O)N[C@H](C(=O)N[C@@H](CCCCN)C(=O)NCC(=O)N[C@@H](CCCNC(=N)N)C(N)=O)C(C)C [GLP-1(9-36)NH2]
% Change in GIR (time 60 min): 21.936%
Plasma Insulin Change (time 60 min): 2.429 ng/mL
% Change in GIR (time 62 min): -1.287%
Plasma Insulin Change (time 62 min): -0.521 ng/mL
% Change in GIR (time 64 min): 0.635%
Plasma Insulin Change (time 64 min): -0.765 ng/mL
% Change in GIR (time 66 min): 10.697%
Plasma Insulin Change (time 66 min): -0.637 ng/mL
% Change in GIR (time 68 min): 24.584%
Plasma Insulin Change (time 68 min): -0.662 ng/mL
% Change in GIR (time 70 min): 46.387%
Plasma Insulin Change (time 70 min): -0.274 ng/mL
% Change in GIR (time 75 min): 61.185%
Plasma Insulin Change (time 75 min): 0.138 ng/mL
% Change in GIR (time 80 min): 48.254%
Plasma Insulin Change (time 80 min): -0.390 ng/mL
% Change in GIR (time 85 min): 34.689%
Plasma Insulin Change (time 85 min): 0.064 ng/mL
% Change in GIR (time 90 min): 17.272%
Plasma Insulin Change (time 90 min): -0.361 ng/mL
% Change in GIR (time 100 min): 7.537%
Plasma Insulin Change (time 100 min): -0.743 ng/mL
% Change in GIR (time 110 min): -0.920%
Plasma Insulin Change (time 110 min): -0.824 ng/mL
% Change in GIR (time 120 min): 4.716%
Plasma Insulin Change (time 120 min): -0.880 ng/mL
% Change in GIR (time 130 min): 3.818%
Plasma Insulin Change (time 130 min): -0.653 ng/mL
% Change in GIR (time 140 min): -6.783%
Plasma Insulin Change (time 140 min): -0.927 ng/mL
% Change in GIR (time 150 min): 1.333%
Plasma Insulin Change (time 150 min): -0.450 ng/mL
